Test results: patent US8685970B2, “Quinolines and related analogs as sirtuin modulators” (GlaxoSmithKline, LLC, priority 2008, dated 2014)

Biological target: T1, SIRT1 (Homo sapiens, UniProt Q96EB6)
T1 sequence (Q96EB6 1-747): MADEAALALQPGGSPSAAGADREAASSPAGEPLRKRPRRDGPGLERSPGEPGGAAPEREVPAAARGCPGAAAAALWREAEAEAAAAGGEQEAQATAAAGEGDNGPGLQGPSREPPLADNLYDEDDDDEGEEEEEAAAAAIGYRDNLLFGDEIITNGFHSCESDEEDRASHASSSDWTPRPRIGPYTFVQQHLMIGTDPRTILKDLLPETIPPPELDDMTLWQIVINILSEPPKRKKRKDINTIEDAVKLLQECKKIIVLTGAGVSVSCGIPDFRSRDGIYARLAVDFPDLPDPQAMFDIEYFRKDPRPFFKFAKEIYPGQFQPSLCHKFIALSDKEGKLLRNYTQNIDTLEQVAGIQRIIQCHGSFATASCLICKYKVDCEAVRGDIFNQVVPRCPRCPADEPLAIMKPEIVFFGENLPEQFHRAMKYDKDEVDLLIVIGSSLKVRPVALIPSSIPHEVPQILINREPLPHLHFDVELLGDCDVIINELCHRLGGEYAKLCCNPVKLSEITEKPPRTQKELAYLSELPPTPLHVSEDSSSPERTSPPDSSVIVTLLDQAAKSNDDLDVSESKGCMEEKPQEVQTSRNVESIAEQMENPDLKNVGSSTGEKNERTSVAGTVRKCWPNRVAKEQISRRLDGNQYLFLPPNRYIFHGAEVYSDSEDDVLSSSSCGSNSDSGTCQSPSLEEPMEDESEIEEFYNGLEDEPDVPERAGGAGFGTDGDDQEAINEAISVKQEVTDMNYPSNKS
Assay: Mass spectrometry based SIRT1 deacetylation assay (activation)
Format: biochemical
Settings: 10 nM SIRT1, 0.5 μM peptide substrate, 120 μM βNAD+, 25 min at 25° C.
Excerpt: A mass spectrometry based assay was used to identify modulators of SIRT1 activity. The mass spectrometry based assay utilizes a peptide having 20 amino acid residues as follows: Ac-EE-K (biotin)-GQSTSSHSK (Ac)N1eSTEG-K(5TMR)-EE-NH2 (SEQ ID NO: 1) wherein K(Ac) is an acetylated lysine residue and Nle is a norleucine. The peptide is labeled with the fluorophore 5TMR (excitation 540 nm/emission 580 nm) at the C-terminus. The sequence of the peptide substrate is based on p53 with several modifications. In addition, the methionine residue naturally present in the sequence was replaced with the norleucine because the methionine may be susceptible to oxidation during synthesis and purification.
The mass spectrometry assay is conducted as follows: 0.5 μM peptide substrate and 120 μM βNAD^+ is incubated with 10 nM SIRT1 for 25 minutes at 25° C. in a reaction buffer (50 mM Tris-acetate pH 8, 137 mM NaCl, 2.7 mM KCl, 1 mM MgCl2, 5 mM DTT, 0.05% BSA). Test compounds may be added to the reaction as described above. The SirT1 gene is cloned into a T7-promoter containing vector and transformed into BL21(DE3). After the 25 minute incubation with SIRT1, 10 μL of 10% formic acid is added to stop the reaction. Reactions are sealed and frozen for later mass spec analysis. Determination of the mass of the substrate peptide allows for precise determination of the degree of acetylation (i.e. starting material) as compared to deacetylated peptide (product).
A control for inhibition of sirtuin activity is conducted by adding 1 μL of 500 mM nicotinamide as a negative control at the start of the reaction (e.g., permits determination of maximum sirtuin inhibition). A control for activation of sirtuin activity is conducted using 10 nM of sirtuin protein, with 1 μL of DMSO in place of compound, to determine the amount of deacetylation of the substrate at a given timepoint within the linear range of the assay. This timepoint is the same as that used for test compounds and, within the linear range, the endpoint represents a change in velocity.
For the above assay, SIRT1 protein was expressed and purified as follows. The SirT1 gene was cloned into a T7-promoter containing vector and transformed into BL21(DE3). The protein was expressed by induction with 1 mM IPTG as an N-terminal His-tag fusion protein at 18° C. overnight and harvested at 30,000×g. Cells were lysed with lysozyme in lysis buffer (50 mM Tris-HCl, 2 mM Tris[2-carboxyethyl]phosphine (TCEP), 10 μM ZnCl2, 200 mM NaCl) and further treated with sonication for 10 min for complete lysis. The protein was purified over a Ni-NTA column (Amersham) and fractions containing pure protein were pooled, concentrated and run over a sizing column (Sephadex S200 26/60 global). The peak containing soluble protein was collected and run on an Ion-exchange column (MonoQ). Gradient elution (200 mM-500 mM NaCl) yielded pure protein. This protein was concentrated and dialyzed against dialysis buffer (20 mM Tris-HCl, 2 mM TCEP) overnight. The protein was aliquoted and frozen at −80° C. until further use.
Sirtuin modulating compounds that activated SIRT1 were identified using the assay described above and are shown below in Table 1. The EC1.5 values represent the concentration of test compounds that result in 150% activation of SIRT1. The EC1.5 values for the activating compounds are represented by A (EC1.5<1.0 uM), B (EC1.5 1-25 uM), C (EC1.5>25 uM). The percent maximum fold activation is represented by A (Fold activation >200%) or B (Fold Activation <200%). “NT” indicates the compound was not tested in a particular assay.

% Fold Act. (percent maximum fold activation) | EC1.5 (concentration of test compound that results in 150% activation of SIRT1) | Structure (SMILES)
A (Fold activation >200%) | B (EC1.5 1-25 uM) | O=C(Nc1ccncc1)c1cccc2ccc(-c3cccc(OC(F)(F)F)c3)nc12 [Compound 26]
– | C (EC1.5>25 uM) | O=C(Nc1cccnc1)c1cc(F)cc2ccc(-c3cccc(C(F)(F)F)c3)nc12 [Compound 63]
– | C (EC1.5>25 uM) | O=C(Nc1ccc(Cl)cn1)c1cccc2ccc(-c3cccnc3)nc12 [Compound 266]
– | C (EC1.5>25 uM) | O=C(Nc1nccs1)c1cccc2cnc(-c3cccnc3)nc12 [Compound 280]
A (Fold activation >200%) | A (EC1.5<1.0 uM) | O=C(Nc1cccc2ccc(-c3cccc(CN4CCCC4)c3)nc12)c1cscn1 [Compound 119]
– | C (EC1.5>25 uM) | FC(F)(F)c1ccccc1-c1ccc2cccc(NCc3cccnc3)c2n1 [Compound 162]
A (Fold activation >200%) | B (EC1.5 1-25 uM) | O=C(Nc1ncnc2ccc(-c3cccc(OC(F)(F)F)c3)nc12)c1cncs1 [Compound 309]
A (Fold activation >200%) | A (EC1.5<1.0 uM) | O=C(Nc1ccncn1)c1cccc2ccc(-c3cccc(C(F)(F)F)c3)nc12 [Compound 41]
A (Fold activation >200%) | A (EC1.5<1.0 uM) | O=C(Nc1nccs1)c1cccc2ccc(-c3cccc(C(F)(F)F)c3)nc12 [Compound 13]
A (Fold activation >200%) | B (EC1.5 1-25 uM) | Cc1cc(NC(=O)c2cccc3ccc(-c4cccc(C(F)(F)F)c4)nc23)n(C)n1 [Compound 51]
A (Fold activation >200%) | A (EC1.5<1.0 uM) | O=C(Nc1ccc(CN2CCOCC2)cc1)c1cccc2ccc(-c3cccc(C(F)F)c3)nc12 [Compound 303]
A (Fold activation >200%) | A (EC1.5<1.0 uM) | O=C(Nc1cccc(CN2CCOCC2)n1)c1cccc2ccc(-c3cccc(C(F)(F)F)c3)nc12 [Compound 228]
A (Fold activation >200%) | A (EC1.5<1.0 uM) | O=C(Nc1cccc2ccc(-c3cccnc3)nc12)c1cscn1 [Compound 76]
A (Fold activation >200%) | B (EC1.5 1-25 uM) | O=C(Nc1ncc(CN2CCOCC2)s1)c1cccc2ccc(-c3cccnc3)nc12 [Compound 191]
A (Fold activation >200%) | A (EC1.5<1.0 uM) | O=C(Nc1ccc(OCC(O)CO)cc1)c1cccc2ccc(-c3cccc(OC(F)(F)F)c3)nc12 (centres unmarked) [Compound 150]
B (Fold Activation <200%) | B (EC1.5 1-25 uM) | O=C(Nc1ccccc1)c1cccc2ccc(-c3cccc(OC(F)(F)F)c3)nc12 [Compound 11]

% Fold Act. (percent maximum fold activation) | EC1.5 (concentration of test compound that results in 150% activation of SIRT1) | Structure (SMILES)
A (Fold activation >200%) | A (EC1.5<1.0 uM) | O=C(Nc1cccc2ccc(-c3cccc(C(F)(F)F)c3)nc12)c1cscn1 [Compound 5]
A (Fold activation >200%) | A (EC1.5<1.0 uM) | O=C(Nc1ccc(CN2CCCC2)cn1)c1cccc2ccc(-c3cccc(C(F)F)c3)nc12 [Compound 302]
A (Fold activation >200%) | A (EC1.5<1.0 uM) | O=C(Nc1ccnc(N2CCCC2)c1)c1cccc2ccc(-c3cccc(C(F)(F)F)c3)nc12 [Compound 322]
A (Fold activation >200%) | A (EC1.5<1.0 uM) | O=C(Nc1ncnc2ccc(-c3cccc(OC(F)(F)F)c3)nc12)c1ccccn1 [Compound 194]
A (Fold activation >200%) | A (EC1.5<1.0 uM) | Cc1ncccc1-c1ccc2cccc(NC(=O)c3cscn3)c2n1 [Compound 196]
A (Fold activation >200%) | A (EC1.5<1.0 uM) | O=C(Nc1nncs1)c1cccc2ccc(-c3cccc(C(F)(F)F)c3)nc12 [Compound 28]
A (Fold activation >200%) | A (EC1.5<1.0 uM) | O=C(Nc1ccccn1)c1cccc2cnc(-c3cccc(N4CCOCC4)c3)nc12 [Compound 315]
A (Fold activation >200%) | A (EC1.5<1.0 uM) | O=C(Nc1cccc2ccc(-c3ccccc3OC(F)(F)F)nc12)c1cscn1 [Compound 92]
A (Fold activation >200%) | A (EC1.5<1.0 uM) | O=C(Nc1cccnn1)c1cccc2ccc(-c3cccc(N4CCOCC4)c3)nc12 [Compound 269]
A (Fold activation >200%) | B (EC1.5 1-25 uM) | O=C(Nc1cccnc1)c1cccc2ccc(-c3ccccc3C(F)(F)F)nc12 [Compound 86]
– | C (EC1.5>25 uM) | O=C(Nc1cccc2ccc(-c3ccccc3)nc12)c1cccc(OC(F)(F)F)c1 [Compound 6]
A (Fold activation >200%) | A (EC1.5<1.0 uM) | O=C(Nc1cccc2ccc(-c3ccccc3)nc12)c1cnccn1 [Compound 3]
A (Fold activation >200%) | A (EC1.5<1.0 uM) | Cc1cnc(NC(=O)c2cccc3ccc(-c4cccc(OC5CCNCC5)c4)nc23)s1 [Compound 134]
– | C (EC1.5>25 uM) | Cc1csc(NC(=O)c2cccc3cnc(-c4cccnc4)nc23)n1 [Compound 295]
A (Fold activation >200%) | A (EC1.5<1.0 uM) | Cc1cc(C)nc(NC(=O)c2cccc3ccc(-c4cccc(N5CCOCC5)c4)nc23)c1 [Compound 267]
